# From patent publication US20250304538A1, “PROCESS OF PREPARING REMIBRUTINIB SUBSTANTIALLY FREE OF NITROSAMINE IMPURITY” (NOVARTIS AG, priority 2024, published 2025)
# Entries after “also recorded” stand apart in the source; their conditions may differ.
# Tests used:
# [1] = Stability of intermediate F8: nitrosamine content overtime (air exposure, storage); assay type: physicochemical; conditions: upon exposure to the air or upon storage
# Protocol: • Limit-test by LC-MS (SIM mode), AJS-ES, positive mode, SIM Ion: 483.2 [M+H]+ • Column: YMC-Triart C18, 100×3.0 mm, particle size 1.9 μm, 12 nm • Mobile phase A: Dissolve 0.315 g of Ammonium formate in 1000 mL of water, add 0.5 mL of formic acid • Mobile phase B: Methanol • Sample solvent: Methanol+0.2% (v/v) Formic acid • Sample solution: approx. 100 mg of the sample in 20 mL • Flow: 0.6 mL/min • Injection volume: 3 μL • Autosampler cooled, 8° C. • Column temperature. 80° C.
# Same method was used to determine the level of nitrosamine content in intermediate F8, in salts or in solvate of LOU064.
# The content of nitrosamine in intermediate F8 was determined using method described in Example 1.
# [2] = Accelerated predictive stability (APS) of LOU064 drug substance, open dish; assay type: physicochemical; conditions: all APS open dish conditions
# Protocol: In order to assess the stability behavior of the nitrosamine impurity (N-(3-(6-amino-5-(2(methyl)(nitroso)amino)ethoxy)pyrimidin-4-yl)-5-fluoro-2-methylphenyl)-4-cyclopropyl-2-fluorobenzamide) in LOU064 drug substance, an accelerated predictive stability (APS) was performed.
# A statistical based approach, Accelerated Predictive Stability (APS), using the humidity modified Arrhenius equation [Waterman and al., International Journal of Pharmaceutics 293 (1-2), 101-125 (2005)] is applied to understand stability behavior and predict the retest period. […] Short studies are conducted on open dish samples of representative batch (es) of drug substance at accelerated conditions using a wide range of temperatures and humidity with the goal of reaching the specification limit for the identified retest period limiting attributes at each condition as detailed below. […] The humidity corrected Arrhenius equation reflects both the influence of the temperature, and the moisture on the kinetics of the degradation product formation. The resulting open-dish data are fitted to a humidity-corrected Arrhenius equation^1 using ASAPprime® (current version 6.0): […]
# 3 batches of LOU064 drug substance were placed in open dish under the protocol summarized below:
# (§1) The pulled samples were analyzed by HPLC-MS as per method described in example 1 and reported below in tables 9 and 10.
# [3] = APS of LOU064 drug substance, closed container with or without nitrogen purge; assay type: physicochemical; conditions: 60-80 °C, up to 27 days
# Protocol: Samples of batches of LOU064 drug substance were prepared in duplicated in closed container, with one sample being purged with nitrogen and the other not.
# as §1
# [4] = test system: Salmonella typhimurium strains TA98, TA100, TA1535 and TA1537; assay: Enhanced Ames Test (EAT), pre-incubation method, Salmonella strains; assay type: cell-based
# Protocol: N-(3-(6-amino-5-(2(methyl)(nitroso)amino)ethoxy)pyrimidin-4-yl)-5-fluoro-2-methylphenyl)-4-cyclopropyl-2-fluorobenzamide was evaluated in the EAT performed under GLP following the EMA and FDA guidance (2023) for the EAT conditions for N-nitrosamines.
# In this study N-(3-(6-amino-5-(2(methyl)(nitroso)amino)ethoxy)pyrimidin-4-yl)-5-fluoro-2-methylphenyl)-4-cyclopropyl-2-fluorobenzamide was evaluated for mutations in Salmonella typhimurium strains TA98, TA100, TA1535 and TA1537 and Escherichia coli strain WP2 uvrA pKM101, both in the absence and presence of 30% rat and hamster metabolic activation (β-naphthoflavone/phenobarbital-induced rat and hamster liver post-mitochondrial S-9 fraction). The test used pre-incubation method (30 minutes). N-(3-(6-amino-5-(2(methyl)(nitroso)amino)ethoxy)pyrimidin-4-yl)-5-fluoro-2-methylphenyl)-4-cyclopropyl-2-fluorobenzamide was formulated in dimethyl sulfoxide (DMSO) at concentrations of 5, 16, 50, 160, 500, 1600 and 5000 μg/plate.
structure (smiles),measurement,setting,value
CNCCOc1c(N)ncnc1-c1cc(F)cc(NC(=O)c2ccc(C3CC3)cc2F)c1C [F8],content of nitrosamine in intermediate F8 (trend),[1],increased overtime
"C=CC(=O)N(C)CCOc1c(N)ncnc1-c1cc(F)cc(NC(=O)c2ccc(C3CC3)cc2F)c1C [LOU064 drug substance, N-(3-(6-Amino-5-(2-(N-methylacrylamido)ethoxy)pyrimidin-4-yl)-5-fluoro-2-methylphenyl)-4-cyclopropyl-2-fluorobenzamide]",stability behavior of the nitrosamine impurity (in words),[2],stable
same,"nitrosamine, stored closed under nitrogen versus closed without nitrogen (in words)",[3],no difference observed beyond analytical variability
"CN(CCc1ccccc1)N=O [MNPA, N-methyl-N-nitroso-(2-phenylethyl)amine, reference compound]",Increases (mutations),"[4]; strain TA98, presence of hamster S-9",up to 1.9
Cc1c(NC(=O)c2ccc(C3CC3)cc2F)cc(F)cc1-c1ncnc(N)c1OCCN(C)N=O [N-(3-(6-amino-5-(2(methyl)(nitroso)amino)ethoxy)pyrimidin-4-yl)-5-fluoro-2-methylphenyl)-4-cyclopropyl-2-fluorobenzamide],mutagenicity,[4]; in the presence of rat S-9,not mutagenic
same,Enhanced Ames Test (EAT) outcome,[4]; overall conclusion of the EAT,positive; also recorded: mutagenic under sensitive metabolic conditions
same,increases in revertant numbers,"[4]; strain TA100, presence of hamster S-9",2 fold
same,increases in revertant numbers,"[4]; strain TA1535, presence of hamster S-9",3 fold
same,mutagenicity,[4]; without metabolic activation,not mutagenic
"CCN(CC)N=O [NDEA, N-nitrosodiethylamine, reference compound]",induced mutations,"[4]; strain TA100, presence of 30% rat S-9",> 2 fold
